# Measured values reported in ChEMBL document CHEMBL1142733, “Binding thermodynamics as a tool to investigate the mechanisms of drug-receptor interactions: thermodynamics of cytoplasmic steroid/nuclear receptors in comparison with membrane receptors” (J Med Chem, 2005).
# Experiments:
# [1] = target: T1, Progesterone receptor (Homo sapiens, UniProt P06401); test: Dissociation constant for [3H]-ORG2058 at human progesterone receptor at 283 K
# T1 sequence (P06401 whole entry): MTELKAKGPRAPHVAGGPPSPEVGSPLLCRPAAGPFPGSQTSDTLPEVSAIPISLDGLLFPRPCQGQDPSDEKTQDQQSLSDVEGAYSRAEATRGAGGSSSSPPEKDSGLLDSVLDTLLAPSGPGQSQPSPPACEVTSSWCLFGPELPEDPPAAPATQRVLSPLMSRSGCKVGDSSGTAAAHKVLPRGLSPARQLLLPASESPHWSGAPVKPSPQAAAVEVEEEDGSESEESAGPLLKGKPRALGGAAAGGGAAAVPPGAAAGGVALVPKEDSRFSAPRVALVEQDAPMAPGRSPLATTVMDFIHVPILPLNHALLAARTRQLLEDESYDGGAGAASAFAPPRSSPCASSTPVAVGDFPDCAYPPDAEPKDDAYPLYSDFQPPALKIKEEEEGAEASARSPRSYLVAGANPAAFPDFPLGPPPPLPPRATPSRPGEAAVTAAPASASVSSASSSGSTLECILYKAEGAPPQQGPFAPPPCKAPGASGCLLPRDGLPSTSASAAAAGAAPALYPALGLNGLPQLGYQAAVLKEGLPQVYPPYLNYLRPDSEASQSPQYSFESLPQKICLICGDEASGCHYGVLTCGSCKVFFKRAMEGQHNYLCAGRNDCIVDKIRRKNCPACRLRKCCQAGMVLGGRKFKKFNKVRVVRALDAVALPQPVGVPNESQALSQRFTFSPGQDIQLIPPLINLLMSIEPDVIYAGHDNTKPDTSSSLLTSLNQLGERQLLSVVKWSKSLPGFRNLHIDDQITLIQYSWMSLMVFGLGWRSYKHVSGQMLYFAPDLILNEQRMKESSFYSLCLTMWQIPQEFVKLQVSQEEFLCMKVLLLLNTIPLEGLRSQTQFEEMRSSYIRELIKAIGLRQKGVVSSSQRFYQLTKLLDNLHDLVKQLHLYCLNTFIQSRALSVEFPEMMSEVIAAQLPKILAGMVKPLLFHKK
# [2] = target: T1, Progesterone receptor; test: Dissociation constant for [3H]ORG2058 at human progesterone receptor at 273 K
# [3] = target: T1, Progesterone receptor; test: Dissociation constant for [3H]ORG2058 at human progesterone receptor at 293K
# [4] = target: T1, Progesterone receptor; test: Dissociation constant for [3H]-ORG2058 at human progesterone receptor at 310K
# [5] = target: T1, Progesterone receptor; test: Dissociation constant for [3H]ORG2058 at human progesterone receptor at 298 K
# [6] = target: T1, Progesterone receptor; test: Dissociation constant for [3H]ORG2058 at human progesterone receptor at 288 K
# [7] = target: T1, Progesterone receptor; test: Dissociation constant for [3H]-ORG2058 at human progesterone receptor at 278 K
# [8] = target: T1, Progesterone receptor; test: Dissociation constant for [3H]ORG2058 at human progesterone receptor at 308 K
# [9] = target: T1, Progesterone receptor; test: Dissociation constant for [3H]ORG2058 at human progesterone receptor at 303 K
# [10] = target: T2, Adenosine receptor A1 (Homo sapiens) (UniProt P30542)
# T2 sequence (whole entry): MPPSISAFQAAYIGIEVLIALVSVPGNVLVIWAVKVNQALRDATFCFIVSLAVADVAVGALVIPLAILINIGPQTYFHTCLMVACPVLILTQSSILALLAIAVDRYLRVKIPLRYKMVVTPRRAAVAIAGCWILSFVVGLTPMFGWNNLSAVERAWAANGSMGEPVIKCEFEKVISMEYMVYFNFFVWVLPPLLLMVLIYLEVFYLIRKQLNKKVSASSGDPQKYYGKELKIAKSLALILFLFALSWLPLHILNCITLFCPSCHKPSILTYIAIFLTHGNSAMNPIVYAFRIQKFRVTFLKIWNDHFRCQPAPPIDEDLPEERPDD
# Description: (§1) Dissociation constant against Adenosine A1 receptor
# [11] = target: T3, Adenosine receptor A1 (Homo sapiens, UniProt P30542)
# T3 sequence (P30542 whole entry): T2 sequence (whole entry)
# Description: as §1
smiles,measurement,setting,value
CC[C@@H]1C[C@H]2[C@@H]3CCC4=CC(=O)CC[C@@H]4[C@H]3CC[C@]2(C)[C@H]1C(=O)CO,Kd,[1],0.00249 µM
same,Kd,[2],0.00328 µM
same,Kd,[3],0.00264 µM
same,Kd,[4],0.00542 µM
same,Kd,[5],0.00316 µM
same,Kd,[6],0.00232 µM
same,Kd,[7],0.0027 µM
same,Kd,[8],0.00456 µM
same,Kd,[9],0.00413 µM
CC(C)Cn1c(=O)n(C)c(=O)c2nc[nH]c21,KD hydro,[10],19000 µM
CC(C)Cn1c(=O)n(C)c(=O)c2[nH]cnc21 [ISOBUTYLMETHYLXANTHINE],Kd,[11],5.9 µM
